Experimental data taken from US20220280486A1, “COMBINED CANCER THERAPY INVOLVING CHEMICAL ACTIVATION OF INTEGRINS AND TARGETED CELL IMMUNOTHERAPY” (The Regents of the University of California, priority 2019, published 2022).
“Also recorded” adds a separate entry of the source.

Legend:
RAW264.7 macrophages = test: Engulfment of supported lipid bilayer-coated silica beads by macrophages (confocal quantification); type: cell-based; conditions: for engulfment of IgG-coated beads in the absence of CD47: manganese treatment, IgG titration
Description: 8.6×10^8 silica beads with a 5.02 μm diameter (10 μl of 10% solids, Bangs Labs, Catalog #SS05N) were washed three times with PBS, mixed with 1 mM SUVs in PBS and incubated at room temperature for 0.5-2 hours with end-over-end mixing to allow for bilayer formation. Beads were then washed three times with PBS to remove excess SUVs and incubated in 100 μl of 0.2% casein (Sigma, catalog #C5890) in PBS for 15 min before protein coupling. […] Purified CD47^ext-His10 was added at […]. Proteins were coupled to the bilayer for 1 hour at room temperature with end-over-end mixing.
Unless otherwise noted, macrophages remained in culture media (DMEM with 10% heat inactivated serum) throughout the experiment. ˜8×10^5 beads were added to well and engulfment was allowed to proceed for 30 min. Cells were fixed with 4% PFA and stained with CellMask (ThermoFisher, catalog #C10045) without membrane permeabilization to label cell boundaries.

[1] = system: complement-opsonized CD47+ mouse red blood cells; conditions: 1 mM manganese
Description: For the mouse red blood cell internalization assay, 30,000 RAW264.7 macrophages (ATCC) were plated in one well of a 96-well glass bottom MatriPlate (Brooks, MGB096-1-2-LG-L) between 12 and 24 hours prior to the experiment. Mouse red blood cells (RBCs) (Innovative Research, 88R-M001) were washed into PBS and stained with CSFE (Thermo Fisher, C34554) or Alexa Fluor 488 NHS Ester (ThermoFisher, A20000) for 1 hr at room temperature. RBCs were then opsonized with C3bi as previously described (Chow et al., 2004). Briefly, RBCs were incubated with anti-mouse IgM (MyBioSource, MBS524107) for 1 hour at 37° C. A portion of RBCs were separated for IgM controls, and the remaining RBCs were incubated with C5 deficient serum (Sigma-Aldrich, C1163) for 1 hour at 37° C. Macrophages were washed into serum-free HEPES imaging buffer and incubated with 150 ng/mL PMA and 1 mM Manganese or water. ˜1×10^6 RBCs were added to each well and engulfment was allowed to proceed for 1 hour in incubator. Cells were washed with PBS, unengulfed RBCs were lysed with water for 2 min, and cells were fixed with 4% PFA. Remaining non-lysed, non-engulfed RBCs were stained with APC anti-iC3b antibody (Biolegend, 1:200 dilution, 846106) for 30 minutes. Macrophages were stained with CellMask orange (ThermoFisher, 1:5,000 dilution) and Hoechst (Invitrogen, H3570, 1:1,000 dilution) for 15 minutes. […]

[2] = system: L1210 murine leukemia cells; test: Whole cell internalization assay, 8 hr timelapse imaging; type: cell-based, mouse; conditions: 100 μM manganese, bone marrow derived macrophages
Description: For timelapse imaging, 30,000 primary bone marrow derived macrophages infected with GFP-CAAX were plated in a 96-well glass bottom MatriPlate (Brooks, Catalog #MGB096-1-2-LG-L). 2 hours prior to imaging, cells were washed into serum-free, phenol free DMEM for imaging. Manganese (SigmaAldrich, M8054) was added at 100 μM 30 min prior to imaging. When indicated, CD47 function-blocking antibody clone miap301 (Biolegend, 127520) was used at […]. 100,000 H2B-mCherry expressing L1210 cells were added and the co-culture was imaged for 8 hr.

Compound: [Mn+2] [manganese, Manganese]
- engulfment of IgG beads with versus without CD47 (RAW264.7 macrophages; macrophages treated with 1 mM manganese, beads with IgG and CD47 or non-signaling CD47 F37D,T115K): engulfed beads with a similar efficiency whether or not CD47 was conjugated to the supported lipid bilayer
- engulfment of IgG-coated beads in the absence of CD47 (RAW264.7 macrophages): did not trigger bead engulfment on its own or dramatically enhance engulfment of IgG-coated beads in the absence of CD47
- engulfment of IgG-coated beads in the absence of CD47 (RAW264.7 macrophages; listed as Mn2+): did not dramatically enhance engulfment
- bead engulfment triggered on its own (RAW264.7 macrophages; manganese, no IgG): did not trigger bead engulfment on its own
- engulfment of control IgM-treated RBCs [1]: not control IgM-treated RBCs
- engulfment of complement-opsonized RBCs ([1]; RAW264.7 macrophages, 1 hour): dramatically increased engulfment of complement-opsonized RBCs
- macrophages engulfing a cancer cell [2]: increased the ability of macrophages to engulf cancer cells; also recorded: allowed for engulfment of whole cancer cells; also recorded: can drive engulfment of whole cancer cells
